Data: ChEMBL document CHEMBL4346757, “Synthesis and biological evaluation of 7-methoxy-1-(3,4,5-trimethoxyphenyl)-4,5-dihydro-2H-benzo[e]indazoles as new colchicine site inhibitors” (Bioorg Med Chem Lett, 2019)

What was measured:
[1] = system: MDA-MB-468; test: Growth inhibition of human MDA-MB-468 cells assessed as cell growth at 1 uM after 48 hrs by SRB assay relative to control; assay type: functional; conditions: MDA-MB-468, 48 h, read-out: Activity
[2] = system: M14; test: Growth inhibition of human M14 cells assessed as cell growth at 0.1 uM after 48 hrs by SRB assay relative to control; assay type: functional; conditions: M14, 48 h, read-out: Activity
[3] = system: CCRF-CEM; test: Cytotoxicity against human CCRF-CEM cells assessed as growth inhibition after 48 hrs by SRB assay; assay type: functional
[4] = system: Hs-578T; test: Growth inhibition of human Hs 578T cells assessed as cell growth at 100 uM after 48 hrs by SRB assay relative to control; assay type: functional; conditions: read-out: Activity
[5] = system: NCI-H460; test: Growth inhibition of human NCI-H460 cells assessed as cell growth at 10 uM after 48 hrs by SRB assay relative to control; assay type: functional; conditions: NCI-H460, 48 h, read-out: Activity
[6] = system: MDA-MB-468; test: Cytotoxicity against human MDA-MB-468 cells assessed as growth inhibition after 48 hrs by SRB assay; assay type: functional; conditions: MDA-MB-468, 48 h
[7] = system: UACC-62; test: Growth inhibition of human UACC62 cells assessed as cell growth at 0.1 uM after 48 hrs by SRB assay relative to control; assay type: functional; conditions: UACC-62, 48 h, read-out: Activity
[8] = system: A498; test: Growth inhibition of human A498 cells assessed as cell growth at 0.1 uM after 48 hrs by SRB assay relative to control; assay type: functional; conditions: A498, 48 h, read-out: Activity
[9] = system: SK-MEL-5; test: Cytotoxicity against human SK-MEL-5 cells assessed as growth inhibition after 48 hrs by SRB assay; assay type: functional; conditions: SK-MEL-5, 48 h
[10] = system: NCI/ADR-RES; test: Cytotoxicity against human NCI-ADR-RES cells assessed as growth inhibition after 48 hrs by SRB assay; assay type: functional
[11] = system: LOX IMVI; test: Cytotoxicity against human LOXIMVI cells assessed as growth inhibition after 48 hrs by SRB assay; assay type: functional
[12] = system: NCI-H23; test: Cytotoxicity against human NCI-H23 cells assessed as growth inhibition after 48 hrs by SRB assay; assay type: functional; conditions: NCI-H23, 48 h
[13] = system: SR; test: Growth inhibition of human SR cells assessed as cell growth at 10 uM after 48 hrs by SRB assay relative to control; assay type: functional; conditions: read-out: Activity
[14] = system: PC-3; test: Growth inhibition of human PC3 cells assessed as cell growth at 0.1 uM after 48 hrs by SRB assay relative to control; assay type: functional; conditions: PC-3, 48 h, read-out: Activity
[15] = system: U-251; test: Growth inhibition of human U251 cells assessed as cell growth at 100 uM after 48 hrs by SRB assay relative to control; assay type: functional; conditions: U-251, 48 h, read-out: Activity
[16] = system: SK-MEL-5; test: Growth inhibition of human SK-MEL-5 cells assessed as cell growth at 0.01 uM after 48 hrs by SRB assay relative to control; assay type: functional; conditions: SK-MEL-5, 48 h, read-out: Activity
[17] = system: 786-0; test: Growth inhibition of human 786-0 cells assessed as cell growth at 10 uM after 48 hrs by SRB assay relative to control; assay type: functional; conditions: 786-0, 48 h, read-out: Activity
[18] = system: SNB-19; test: Growth inhibition of human SNB19 cells assessed as cell growth at 0.01 uM after 48 hrs by SRB assay relative to control; assay type: functional; conditions: SNB-19, 48 h, read-out: Activity
[19] = system: OVCAR-3; test: Growth inhibition of human OVCAR3 cells assessed as cell growth at 0.01 uM after 48 hrs by SRB assay relative to control; assay type: functional; conditions: OVCAR-3, 48 h, read-out: Activity
[20] = system: MOLT-4; test: Growth inhibition of human MOLT4 cells assessed as cell growth at 10 uM after 48 hrs by SRB assay relative to control; assay type: functional; conditions: MOLT-4, 48 h, read-out: Activity
[21] = system: SK-MEL-28; test: Growth inhibition of human SK-MEL-28 cells assessed as cell growth at 100 uM after 48 hrs by SRB assay relative to control; assay type: functional; conditions: SK-MEL-28, 48 h, read-out: Activity
[22] = system: HCT-15; test: Cytotoxicity against human HCT15 cells assessed as growth inhibition after 48 hrs by SRB assay; assay type: functional; conditions: HCT-15, 48 h
[23] = system: OVCAR-3; test: Growth inhibition of human OVCAR3 cells assessed as cell growth at 10 uM after 48 hrs by SRB assay relative to control; assay type: functional; conditions: OVCAR-3, 48 h, read-out: Activity
[24] = system: SW-620; test: Growth inhibition of human SW620 cells assessed as cell growth at 0.1 uM after 48 hrs by SRB assay relative to control; assay type: functional; conditions: SW-620, 48 h, read-out: Activity
[25] = system: DU-145; test: Growth inhibition of human DU145 cells assessed as cell growth at 1 uM after 48 hrs by SRB assay relative to control; assay type: functional; conditions: DU-145, 48 h, read-out: Activity
[26] = system: SK-MEL-5; test: Growth inhibition of human SK-MEL-5 cells assessed as cell growth at 100 uM after 48 hrs by SRB assay relative to control; assay type: functional; conditions: SK-MEL-5, 48 h, read-out: Activity
[27] = target: Tubulin (Bos taurus, UniProt Q6B856+Q862L2+Q862F3); test: Inhibition of bovine brain tubulin polymerization measured every 1 min for 60 mins by turbidimetry based microplate reader analysis
[28] = system: OVCAR-8; test: Growth inhibition of human OVCAR8 cells assessed as cell growth at 0.1 uM after 48 hrs by SRB assay relative to control; assay type: functional; conditions: OVCAR-8, 48 h, read-out: Activity
[29] = system: CAKI-1; test: Growth inhibition of human Caki1 cells assessed as cell growth at 1 uM after 48 hrs by SRB assay relative to control; assay type: functional; conditions: CAKI-1, 48 h, read-out: Activity
[30] = system: NCI/ADR-RES; test: Growth inhibition of human NCI-ADR-RES cells assessed as cell growth at 0.01 uM after 48 hrs by SRB assay relative to control; assay type: functional; conditions: read-out: Activity
[31] = read-out: LC50 (the source's name)
[32] = read-out: pLC50 (the source's name) (converted)

For `COc1ccc2c(c1)CCc1n[nH]c(-c3cc(OC)c(OC)c(OC)c3)c1-2`, the growth at 1 µM [1] was -1%, the growth at 0.1 µM [2] was 1% and the GI50 ([3]; read-out: GI50) was less than 0.01 µM. It also gave a CC50 [3, 31] greater than 100 µM, a TGI ([3]; read-out: TGI) greater than 100 µM and a GI50 ([3]; read-out: pGI50 (converted)) of less than 0.01 µM. The CC50 [3, 32] was greater than 100 µM, the TGI ([3]; read-out: pTGI) was greater than 100 µM and the growth at 100 µM [4] was -18%. The growth at 10 µM [5] was -5%, the GI50 ([6]; read-out: GI50) was less than 0.01 µM and the LC50 (concentration killing 50% of cells) ([6]; read-out: LC50) was greater than 100 µM. For the same molecule, the TGI ([6]; read-out: TGI) was less than 0.01 µM, the GI50 ([6]; read-out: pGI50 (converted)) was less than 0.01 µM and the LC50 (concentration killing 50% of cells) ([6]; read-out: pLC50 (converted)) was greater than 100 µM. For the same molecule, the TGI ([6]; read-out: pTGI) was less than 0.01 µM, the growth at 0.1 µM [7] was 35% and the growth at 0.1 µM [8] was -15%. It also gave a GI50 ([9]; read-out: GI50) of less than 0.01 µM, a CC50 [9, 31] of 24.2 µM and a TGI ([9]; read-out: TGI) of less than 0.01 µM. For the same molecule, the GI50 ([9]; read-out: pGI50 (converted)) was less than 0.01 µM, the CC50 [9, 32] was 24 µM and the TGI ([9]; read-out: pTGI) was less than 0.01 µM. For the same molecule, the GI50 ([10]; read-out: GI50) was less than 0.01 µM, the LC50 ([10]; read-out: LC50) was greater than 100 µM and the TGI ([10]; read-out: TGI) was less than 0.01 µM. It also gave a GI50 ([10]; read-out: pGI50 (converted)) of less than 0.01 µM, an LC50 ([10]; read-out: pLC50 (converted)) greater than 100 µM and a TGI ([10]; read-out: pTGI) of less than 0.01 µM. The GI50 ([11]; read-out: GI50) was less than 0.01 µM, the CC50 [11, 31] was 38.3 µM and the TGI ([11]; read-out: TGI) was 11.8 µM. The GI50 ([11]; read-out: pGI50 (converted)) was less than 0.01 µM, the CC50 [11, 32] was 38 µM and the TGI ([11]; read-out: pTGI (converted)) was 11.7 µM. For the same molecule, the GI50 ([12]; read-out: GI50) was less than 0.01 µM, the CC50 [12, 31] was greater than 100 µM and the TGI ([12]; read-out: TGI) was 3.53 µM. For the same molecule, the GI50 ([12]; read-out: pGI50 (converted)) was less than 0.01 µM, the CC50 [12, 32] was greater than 100 µM and the TGI ([12]; read-out: pTGI (converted)) was 3.55 µM. It also gave a growth at 10 µM [13] of 9%, a growth at 0.1 µM [14] of 19% and a growth at 100 µM [15] of -72%. It also gave a growth at 0.01 µM [16] of -6%, a growth at 10 µM [17] of 3% and a growth at 0.01 µM [18] of 33%. The growth at 0.01 µM [19] was 14%, the growth at 10 µM [20] was 31% and the growth at 100 µM [21] was -66%. The GI50 ([22]; read-out: GI50) was less than 0.01 µM, the CC50 [22, 31] was greater than 100 µM and the TGI ([22]; read-out: TGI) was 11.8 µM. The GI50 ([22]; read-out: pGI50 (converted)) was less than 0.01 µM, the CC50 [22, 32] was greater than 100 µM and the TGI ([22]; read-out: pTGI (converted)) was 11.7 µM. For the same molecule, the growth at 10 µM [23] was 12%, the growth at 0.1 µM [24] was 18% and the growth at 1 µM [25] was 12%. It also gave a growth at 100 µM [26] of -97%, an IC50 [27] of 3.4 µM and a growth at 0.1 µM [28] of 13%. It also gave a growth at 1 µM [29] of 22% and a growth at 0.01 µM [30] of -13%.
